Laboratory results from patent publication US9410100B2, “Tritylated ethers” (ANGUS Chemical Company, priority 2012, dated 2016).

Tests used:
[1] = Solubility studies of functionalized tritylated phenol ethers in solvents; type: physicochemical
Protocol: The solubility properties of functionalized tritylated phenol ethers were determined by mixing 0.1 gram samples of sample in 0.9 grams of solvent. The mixtures were warmed at 60° C. for a few minutes to make homogeneous solutions. The solutions were cooled back to room temperature, and then they were placed into a freezer at −10° C. The solutions were checked daily to see if crystallization had occurred.

| melting point [°C] | Solubility at RT ([1]; 10 wt % in 1-Octanol, cooled to room temperature) | Solubility at 60 C. ([1]; 10 wt % in 1-Octanol, warmed at 60 C) | Solubility at RT ([1]; 10 wt % in AROMATIC 200, cooled to room temperature) | Solubility at 60 C. ([1]; 10 wt % in AROMATIC 200, warmed at 60 C) | Solubility at RT ([1]; 10 wt % in DMAc, cooled to room temperature) | Solubility at 60 C. ([1]; 10 wt % in DMAc, warmed at 60 C) | Solubility at RT ([1]; 10 wt % in DPGME, cooled to room temperature) | Solubility at 60 C. ([1]; 10 wt % in DPGME, warmed at 60 C) | Solubility at RT ([1]; 10 wt % in NMP, cooled to room temperature) | Solubility at 60 C. ([1]; 10 wt % in NMP, warmed at 60 C) | Solubility at RT ([1]; 10 wt % in Tetralin, cooled to room temperature) | Solubility at 60 C. ([1]; 10 wt % in Tetralin, warmed at 60 C) | SMILES |
| --- | --- | --- | --- | --- | --- | --- | --- | --- | --- | --- | --- | --- | --- |
| 81 to 84 | soluble | soluble | insoluble | insoluble | soluble | soluble | soluble | soluble | soluble | soluble | insoluble | soluble | OCCCCCCOc1ccc(C(c2ccccc2)(c2ccccc2)c2ccccc2)cc1OCCCCCCO [Ex. 4, 6,6′-((4-trityl-1,2-phenylene)bis(oxy))bis(hexan-1-ol)] |
| 158 to 161 |  |  |  |  |  |  |  |  |  |  |  |  | OCCCCCCOc1ccc(C(c2ccccc2)(c2ccccc2)c2ccccc2)cc1 [compound 1, 6-(4-Tritylphenoxy)hexan-1-ol] |
